The subject of this data set is CCRIS mutagenicity, Ames/micronucleus/aberration tests. Kind of data set: CCRIS mutagenicity studies.
Setting [1] is: Test System: AMES SALMONELLA TYPHIMURIUM, Strain/Indicator: TA97, Metabolic Activation: NONE, Method: PREINCUBATION
The mark [2] stands for this setting: Test System: AMES SALMONELLA TYPHIMURIUM, Strain/Indicator: TA98, Metabolic Activation: NONE, Method: PREINCUBATION
Where [3] appears, read: Test System: AMES SALMONELLA TYPHIMURIUM, Strain/Indicator: TA100, Metabolic Activation: NONE, Method: PREINCUBATION
The mark [4] stands for this setting: Test System: AMES SALMONELLA TYPHIMURIUM, Strain/Indicator: TA98, Metabolic Activation: NONE, Method: STANDARD PLATE.
Where [5] appears, read: Test System: AMES SALMONELLA TYPHIMURIUM, Strain/Indicator: TA98, Metabolic Activation: RAT, LIVER, S-9, AROCLOR 1254, Method: PREINCUBATION
[6] abbreviates: Test System: AMES SALMONELLA TYPHIMURIUM, Strain/Indicator: TA98, Metabolic Activation: RAT, LIVER, S-9, AROCLOR 1254, Method: STANDARD PLATE.
Where [7] appears, read: Test System: AMES SALMONELLA TYPHIMURIUM, Strain/Indicator: TA100, Metabolic Activation: NONE, Method: STANDARD PLATE.
[8] abbreviates: Test System: AMES SALMONELLA TYPHIMURIUM, Strain/Indicator: TA100, Metabolic Activation: RAT, LIVER, S-9, AROCLOR 1254, Method: STANDARD PLATE.
The mark [9] stands for this setting: Test System: AMES SALMONELLA TYPHIMURIUM, Strain/Indicator: TA102, Metabolic Activation: NONE, Method: PREINCUBATION

Calls of active or inactive are those of the source. The rule behind the calls is not given here.

Turning to `CCCCOCCOCCSC#N`, the mutagenic call (Test System: AMES SALMONELLA TYPHIMURIUM, Strain/Indicator: TA97, Metabolic Activation: HAMSTER, LIVER, S-9, AROCLOR 1254 (10%), Method: PREINCUBATION) was “inactive; negative”; the mutagenic call (Test System: AMES SALMONELLA TYPHIMURIUM, Strain/Indicator: TA97, Metabolic Activation: HAMSTER, LIVER, S-9, AROCLOR 1254 (30%), Method: PREINCUBATION) is “inactive; negative”; the mutagenic call under setting [1] was “inactive; negative”; the mutagenic call (Test System: AMES SALMONELLA TYPHIMURIUM, Strain/Indicator: TA97, Metabolic Activation: RAT, LIVER, S-9, AROCLOR 1254 (10%), Method: PREINCUBATION) is “inactive; negative”; the mutagenic call (Test System: AMES SALMONELLA TYPHIMURIUM, Strain/Indicator: TA97, Metabolic Activation: RAT, LIVER, S-9, AROCLOR 1254 (30%), Method: PREINCUBATION) was “inactive; negative”; the mutagenic call (Test System: AMES SALMONELLA TYPHIMURIUM, Strain/Indicator: TA98, Metabolic Activation: HAMSTER, LIVER, S-9, AROCLOR 1254 (10%), Method: PREINCUBATION) is “inactive; negative”. In addition, the mutagenic call is “inactive; negative” (Test System: AMES SALMONELLA TYPHIMURIUM, Strain/Indicator: TA98, Metabolic Activation: HAMSTER, LIVER, S-9, AROCLOR 1254 (30%), Method: PREINCUBATION); “inactive; negative” under setting [2]; “inactive; negative” (Test System: AMES SALMONELLA TYPHIMURIUM, Strain/Indicator: TA98, Metabolic Activation: RAT, LIVER, S-9, AROCLOR 1254 (10%), Method: PREINCUBATION); “inactive; negative” (Test System: AMES SALMONELLA TYPHIMURIUM, Strain/Indicator: TA98, Metabolic Activation: RAT, LIVER, S-9, AROCLOR 1254 (30%), Method: PREINCUBATION); “inactive; negative” (Test System: AMES SALMONELLA TYPHIMURIUM, Strain/Indicator: TA100, Metabolic Activation: HAMSTER, LIVER, S-9, AROCLOR 1254 (10%), Method: PREINCUBATION); “inactive; negative” (Test System: AMES SALMONELLA TYPHIMURIUM, Strain/Indicator: TA100, Metabolic Activation: HAMSTER, LIVER, S-9, AROCLOR 1254 (30%), Method: PREINCUBATION). Besides, the mutagenic call is, setting by setting: under setting [3], “inactive; negative”; (Test System: AMES SALMONELLA TYPHIMURIUM, Strain/Indicator: TA100, Metabolic Activation: RAT, LIVER, S-9, AROCLOR 1254 (10%), Method: PREINCUBATION) “inactive; negative”; (Test System: AMES SALMONELLA TYPHIMURIUM, Strain/Indicator: TA100, Metabolic Activation: RAT, LIVER, S-9, AROCLOR 1254 (30%), Method: PREINCUBATION) “inactive; negative”; (Test System: AMES SALMONELLA TYPHIMURIUM, Strain/Indicator: TA1535, Metabolic Activation: HAMSTER, LIVER, S-9, AROCLOR 1254 (10%), Method: PREINCUBATION) “inactive; negative”; (Test System: AMES SALMONELLA TYPHIMURIUM, Strain/Indicator: TA1535, Metabolic Activation: HAMSTER, LIVER, S-9, AROCLOR 1254 (30%), Method: PREINCUBATION) “inactive; negative”; (Test System: AMES SALMONELLA TYPHIMURIUM, Strain/Indicator: TA1535, Metabolic Activation: NONE, Method: PREINCUBATION) “inactive; negative”. For the same compound, the mutagenic call by setting is: (Test System: AMES SALMONELLA TYPHIMURIUM, Strain/Indicator: TA1535, Metabolic Activation: RAT, LIVER, S-9, AROCLOR 1254 (10%), Method: PREINCUBATION) “inactive; negative”; (Test System: AMES SALMONELLA TYPHIMURIUM, Strain/Indicator: TA1535, Metabolic Activation: RAT, LIVER, S-9, AROCLOR 1254 (30%), Method: PREINCUBATION) “inactive; negative”; (Test System: AMES SALMONELLA TYPHIMURIUM, Strain/Indicator: TA1537, Metabolic Activation: HAMSTER, LIVER, S-9, AROCLOR 1254 (30%), Method: PREINCUBATION) “inactive; negative”; (Test System: AMES SALMONELLA TYPHIMURIUM, Strain/Indicator: TA1537, Metabolic Activation: NONE, Method: PREINCUBATION) “inactive; negative”; (Test System: AMES SALMONELLA TYPHIMURIUM, Strain/Indicator: TA1537, Metabolic Activation: RAT, LIVER, S-9, AROCLOR 1254 (30%), Method: PREINCUBATION) “inactive; negative”.
For the compound `Cc1ccccc1NO`, the mutagenic call runs as follows: under setting [4], “inactive; negative”; under setting [5], “inactive; negative”; under setting [6], “inactive; negative”; under setting [7], “inactive; negative”; under setting [8], “active; positive”; (Test System: AMES SALMONELLA TYPHIMURIUM, Strain/Indicator: TA100, Metabolic Activation: RAT, LIVER, S-9, PCB, Method: PREINCUBATION) “active; positive”.
As to `Cn1c(N)nc2ccccc21`, the mutagenic call is “active; positive” under setting [5] and “active; positive” (Test System: AMES SALMONELLA TYPHIMURIUM, Strain/Indicator: TA100, Metabolic Activation: RAT, LIVER, S-9, AROCLOR 1254, Method: PREINCUBATION).
As to `CC(CO)[N+](=O)[O-]` (stereo not given), the mutagenic call was “inactive; negative” under setting [2]; “inactive; negative” (Test System: AMES SALMONELLA TYPHIMURIUM, Strain/Indicator: TA98, Metabolic Activation: RAT, LIVER, S-9, AROCLOR, Method: PREINCUBATION); “inactive; negative” under setting [3]; “inactive; negative” (Test System: AMES SALMONELLA TYPHIMURIUM, Strain/Indicator: TA100, Metabolic Activation: RAT, LIVER, S-9, AROCLOR, Method: PREINCUBATION); “inactive; negative” under setting [9]; “inactive; negative” (Test System: AMES SALMONELLA TYPHIMURIUM, Strain/Indicator: TA102, Metabolic Activation: RAT, LIVER, S-9, AROCLOR, Method: PREINCUBATION).
In the case of `O=[N+]([O-])c1cc(NS(=O)(=O)c2cccc3cccnc23)ccc1Cl`, the mutagenic call reads like this: under setting [4], “inactive; negative”; under setting [6], “inactive; negative”; under setting [7], “inactive; negative”; under setting [8], “inactive; negative”; (Test System: AMES SALMONELLA TYPHIMURIUM, Strain/Indicator: TA1535, Metabolic Activation: NONE, Method: STANDARD PLATE) “inactive; negative”; (Test System: AMES SALMONELLA TYPHIMURIUM, Strain/Indicator: TA1535, Metabolic Activation: RAT, LIVER, S-9, AROCLOR 1254, Method: STANDARD PLATE) “inactive; negative”. The mutagenic call was “inactive; negative” (Test System: AMES SALMONELLA TYPHIMURIUM, Strain/Indicator: TA1537, Metabolic Activation: NONE, Method: STANDARD PLATE) and “inactive; negative” (Test System: AMES SALMONELLA TYPHIMURIUM, Strain/Indicator: TA1537, Metabolic Activation: RAT, LIVER, S-9, AROCLOR 1254, Method: STANDARD PLATE).
Consider `COc1cc(NCCCCCNC(C)C)c2ncccc2c1`, for which the mutagenic call was “inactive; negative” under setting [1]; “active; positive” (Test System: AMES SALMONELLA TYPHIMURIUM, Strain/Indicator: TA97, Metabolic Activation: RAT, LIVER, S-9, PHENOBARBITAL AND BETA-NAPHTHOFLAVONE, Method: PREINCUBATION); “inactive; negative” under setting [2]; “inactive; negative” (Test System: AMES SALMONELLA TYPHIMURIUM, Strain/Indicator: TA98, Metabolic Activation: RAT, LIVER, S-9, PHENOBARBITAL AND BETA-NAPHTHOFLAVONE, Method: PREINCUBATION); “inactive; negative” under setting [3]; “inactive; negative” (Test System: AMES SALMONELLA TYPHIMURIUM, Strain/Indicator: TA100, Metabolic Activation: RAT, LIVER, S-9, PHENOBARBITAL AND BETA-NAPHTHOFLAVONE, Method: PREINCUBATION). Also, the mutagenic call runs as follows: under setting [9], “inactive; negative”; (Test System: AMES SALMONELLA TYPHIMURIUM, Strain/Indicator: TA102, Metabolic Activation: RAT, LIVER, S-9, PHENOBARBITAL AND BETA-NAPHTHOFLAVONE, Method: PREINCUBATION) “inactive; negative”; (Test System: E.COLI, Strain/Indicator: WP2UVRA/PKM101, Metabolic Activation: NONE, Method: PREINCUBATION) “inactive; negative”; (Test System: E.COLI, Strain/Indicator: WP2UVRA/PKM101, Metabolic Activation: RAT LIVER S-9, PHENOBARBITAL AND 5,6-BENZOFLAVONE, Method: PREINCUBATION) “inactive; negative”.

Source of the values: PubChem BioAssay AID1259407 (Chemical Carcinogenesis Research Information System (CCRIS), 2018).
